Measurements taken from US8003689B2, “Metabolites of selective androgen receptor modulators and methods of use thereof” (GTx, Inc., priority 2008, dated 2011).

What was measured:
[1] = Phase I microsome reactions of Compound II, human; format: in vitro ADME; conditions: Human liver microsomes; not absolutely quantitative (n = 2)
Protocol: (§1) Test compound stock solutions were prepared in acetonitrile at 10 mM, 200 times (200×) the final concentration. The stock solutions were added in incubation mixtures to obtain the final drug concentration of 50 μM, containing 0.5% acetonitrile. A concentration of 50 μM was utilized to allow for detection of possible minor metabolites (select studies were run at 10 μM for confirmatory purposes). Human, monkey, dog, rat, mouse microsomes were all utilized at a final concentration of 1.0 mg/ml. Duplicate wells were used for each time point (0 and 120 minutes). Incubation was conducted at 37° C. in a shaking water bath. The final volume for each reaction was 200 μl, composed of: 66 μl of 0.2 M KPO4 buffer, (pH 7.4); 73 μl of H2O, 10 μl of 20 mg/ml microsome stock; 1.0 μl of 10 mM compound stock, and 50 μl of NRS solution. The NRS solution consisting of glucose-6-phosphate dehydrogenase, NADP+, MgCl2, and glucose-6-phosphate, was prepared as described in manufacturer's instructions. […]
(§2) The mass spectrometers were operated in EMS mode in order to detect all possible metabolites. […] Intensity of putative metabolite was semi-quantitated using the peak area of the metabolites in XIC, which was subtracted with the peak area of time zero control at the same retention time with the metabolites.

[2] = Phase I microsome reactions of Compound II, monkey; format: in vitro ADME; conditions: Monkey liver microsomes; not absolutely quantitative (n = 2)
Protocol: as §1, §2

[3] = Phase I microsome reactions of Compound II, dog; format: in vitro ADME; conditions: Dog liver microsomes; not absolutely quantitative (n = 2)
Protocol: as §1, §2

[4] = Phase I microsome reactions of Compound II, rat; format: in vitro ADME; conditions: Rat liver microsomes; not absolutely quantitative (n = 2)
Protocol: as §1, §2

[5] = Phase I microsome reactions of Compound II, mouse; format: in vitro ADME; conditions: Mouse liver microsomes; not absolutely quantitative (n = 2)
Protocol: as §1, §2

[6] = Phase I and II microsome reactions (+UDPGA) of Compound II, human; format: in vitro ADME; conditions: Human liver microsomes (+UDPGA)
Protocol: (§3) For microsome reactions performed under conditions allowing for both phase I and II metabolism, the initial procedure and reaction conditions were followed similarly as described above. Additional cofactors were also included in each reaction to maximize the potential for in vitro glucuronidation to occur. UDPGA was added at a final concentration of 5.0 mM. Saccharolactone (β-glucuronidase inhibitor) and alamethicin (pore forming peptide) were added to each reaction at a final concentration of 5.0 mM and 50 μg/ml, respectively.
(§4) Each 200 μl microsomal reaction solution was composed of: 66 μl of 0.2 M KPO4 buffer, (pH 7.4); 50 μl of NRS solution (as described above); 66 μl of UDPGA (15 mM stock); 5.0 μl of saccharolactone (200 mM stock); 0.5 μl of alamethicin (20 mg/ml); 0.6 μl of MgCl2 (1 M stock); and 10 μl of microsomes (20 mg/ml stock).
(§5) At the end of incubation, 100 μl of reaction solution under incubation was transferred to a sample well containing 100 μl of ice cold acetonitrile to quench the reaction. […]
as §2

[7] = Phase I and II microsome reactions (+UDPGA) of Compound II, monkey; format: in vitro ADME; conditions: Monkey liver microsomes (+UDPGA)
Protocol: as §3, §4, §5, §2

[8] = Phase I and II microsome reactions (+UDPGA) of Compound II, dog; format: in vitro ADME; conditions: Dog liver microsomes (+UDPGA)
Protocol: as §3, §4, §5, §2

[9] = Phase I and II microsome reactions (+UDPGA) of Compound II, rat; format: in vitro ADME; conditions: Rat liver microsomes (+UDPGA)
Protocol: as §3, §4, §5, §2

[10] = Phase I and II microsome reactions (+UDPGA) of Compound II, mouse; format: in vitro ADME; conditions: Mouse liver microsomes (+UDPGA)
Protocol: as §3, §4, §5, §2

[11] = system: human hepatocytes; experiment: Hepatocyte assay of Compound II, human; format: in vitro ADME
Protocol: (§6) The stock solutions (10 mM in acetonitrile) for the test compounds were diluted in the incubation media to a working concentration of 100 μM (2×). Thawing frozen hepatocytes was followed by performing Percoll purification as described in manufacturer's manual. Primary hepatocytes were resuspended in incubation media and viability was measured using trypan blue exclusion method. The initial viability score was registered as ‘T0’ (time point of 0 minute), and viability was required to be at least ˜70% at this point for the experiment to continue. Cells were washed a second time (60 g for 5 minutes) with supplemented DMEM and the final concentration was adjusted to […] (2×). Samples were set up in 48-well plates, using 2 wells per each time point. A trypan blue well was also set up for viability analysis at the end of study (T=120 min). 100 μl of the 2× drug solution was combined with 100 μl of the 2× hepatocyte suspension. Final concentration was […] (200,000 cells/well) and 50 μM compound. Final concentration of acetonitrile was 0.5%. […]
as §2

[12] = system: monkey hepatocytes; experiment: Hepatocyte assay of Compound II, monkey; format: in vitro ADME
Protocol: as §6, §2

[13] = system: dog hepatocytes; experiment: Hepatocyte assay of Compound II, dog; format: in vitro ADME
Protocol: as §6, §2

[14] = system: Rat Hepatocytes; experiment: Hepatocyte assay of Compound II, rat; format: in vitro ADME
Protocol: as §6, §2

[15] = system: mouse hepatocytes; experiment: Hepatocyte assay of Compound II, mouse; format: in vitro ADME
Protocol: as §6, §2

[16] = In vitro metabolites of Compound I in rat liver microsomes; format: in vitro ADME; conditions: metabolite formed from Compound I
[17] = system: Rat Hepatocytes; experiment: In vitro metabolites of Compound I in rat hepatocytes; format: in vitro ADME; conditions: metabolite formed from Compound I
[18] = Metabolic stability in primary monkey hepatocytes; format: in vitro ADME
[19] = system: primary monkey hepatocytes; experiment: Metabolic stability in primary monkey hepatocytes; format: in vitro ADME
[20] = Metabolic stability in human liver microsomes; format: in vitro ADME
Protocol: Human liver microsomes and hepatocytes were utilized at a final concentration of 1.0 mg/ml and 1×10^6 cells/ml, respectively. Duplicate wells were used for each time point (0, 5, 10, 30, and 60 minutes). The concentrations of parent drug remaining in each well were analyzed on an MDS/Sciex API4000 Q Trap system with electrospray ionization (ESI) in the positive and/or negative SIM mode, depending on the test compound(s). […] For hepatocyte assays, cell viability was also monitored at each time point (from replicate wells) using the Trypan Blue exclusion method.

[21] = Permeability and efflux potential across Caco-2 monolayers; design: Papp A→B / Papp B→A: dose or concentration left out as unconfirmed; conditions: human
Protocol: (§7) Permeability (and efflux potential) was measured in the Apical (pH 6.5) to Basolateral (pH 7.4) and Basolateral (pH 7.4) to Apical (pH 6.5) directions across polarized, Caco-2 epithelial monolayers. Compound stocks were tested at a final concentration of […]. The concentration of drug in the receiver well was measured by LC/MS/MS using a standard curve.

[22] = system: Caco-2 epithelial monolayers; experiment: as above; design: Papp A→B / Papp B→A: dose or concentration left out as unconfirmed
Protocol: as §7

[23] = system: CYP3A4; experiment: CYP3A4 induction in primary human hepatocytes; format: in vitro ADME
Protocol: (§8) Cytochrome P450 enzyme inhibition was measured using human, cDNA-expressed CYP3A4, 2D6, 2C19, 2C9, and 1A2 enzymes. Analogues of the model substrate coumarin were utilized for each isozyme, at a concentration near the apparent Km of this substrate. Compound stocks were tested using an 8-point dose-response curve in duplicate (ranging from […]). […] For microsome-based CYP inhibition measurements, all substrates were utilized at the approximate Km value. […] Duplicate wells in the induction assay were used to measure both functionality and expression of the CYP enzyme.

[24] = system: CYP2C9; experiment: CYP2C9 induction in primary human hepatocytes; format: in vitro ADME
Protocol: as §8

[25] = Human Liver Microsomes, Phase I
[26] = Human Liver Microsomes, Phase I + II

N#Cc1ccc(N)cc1Cl [Compound 151]
Relative Percent of Extracted Ion Chromatogram (XIC) for Phase I metabolites of Compound II [1]: 3% | Relative Percent of Extracted Ion Chromatogram (XIC) for Phase I metabolites of Compound II [2]: 4% | Relative Percent of Extracted Ion Chromatogram (XIC) for Phase I metabolites of Compound II [3]: 6% | Relative Percent of Extracted Ion Chromatogram (XIC) for Phase I metabolites of Compound II [4]: 4% | Relative Percent of Extracted Ion Chromatogram (XIC) for Phase I metabolites of Compound II [5]: 4% | Relative Percent of XIC for Phase I and Glucuronide Metabolites of Compound II [6]: 0.8% | Relative Percent of XIC for Phase I and Glucuronide Metabolites of Compound II [7]: 1.6% | Relative Percent of XIC for Phase I and Glucuronide Metabolites of Compound II [8]: 2.9% | Relative Percent of XIC for Phase I and Glucuronide Metabolites of Compound II [9]: 1.4% | Relative Percent of XIC for Phase I and Glucuronide Metabolites of Compound II [10]: 1.1% | Relative Percent of XIC for Phase I and II Metabolites of Compound II [11]: 0.5% | Relative Percent of XIC for Phase I and II Metabolites of Compound II [12]: 2.2% | Relative Percent of XIC for Phase I and II Metabolites of Compound II [13]: 4.7% | Relative Percent of XIC for Phase I and II Metabolites of Compound II [14]: 0.9% | Relative Percent of XIC for Phase I and II Metabolites of Compound II [15]: 0.8%

C[C@@](COc1ccc(C#N)cc1)(OC1OC(C(=O)O)C(O)C(O)C1O)C(=O)Nc1ccc(C#N)c(C(F)(F)F)c1 (stereo partly drawn) [Compound 564]
relative abundance of in vitro metabolites of Compound I (m/z 388) [16]: 1.92 | relative abundance of in vitro metabolites of Compound I (m/z 388) [17]: 0.37

C[C@](O)(COc1ccc(C#N)cc1)C(=O)Nc1ccc(C#N)c(C(F)(F)F)c1 [Compound I, (S)—N-(4-cyano-3-(trifluoromethyl)phenyl)-3-(4-cyanophenoxy)-2-hydroxy-2-methylpropanamide]
CLint scaled [18]: < 1 mL/min/kg | Half-Life [19]: Stable | Half-Life Phase I [20, 25]: Stable | microsomal CLint [20, 25]: < 1000 µL/min/mg | CLint Phase I + II [20, 26]: <1000 µL/min/mg | Half-Life Phase I + II [20, 26]: Stable | in vitro half-life (stability in words) ([20]; microsomal and hepatocyte assays, both phase I and phase I/II metabolic conditions): mostly stable | Papp B→A ([21]; Caco-2): 29 ×10⁻⁶ cm/s | Papp A→B ([21]; Caco-2, Permeability Classification, classified from Papp (A-B)): > 10 ×10⁻⁶ cm/s | efflux potential ([22]; Caco-2 permeability assays): low | Permeability Classification ([22]; classified from Papp (A-B)): high | induction of CYP3A4 activity [23]: does not induce | induction of CYP2C9 activity [24]: does not induce
